Assays:
[1] = test system: Staphylococcus aureus lipases; set-up: method as in PMID 17559400; details: cited from earlier work
[2] = test system: A. baumannii strain (AB5075); test: Broth microdilution MIC; details: Acinetobacter baumannii, 24 h
[3] = test system: A. baumannii strain (AB5075); test: Tetrazolium/formazan (TTC) assay, effective inhibitory concentration; type: cell-based, Acinetobacter baumannii
A. baumannii (AB5075) = test: Growth curve assay

| SMILES | IC50 [1] [µM] | MIC [2] [µg/mL] | EIC ([3]; TTC assay, lowest concentration preventing red color formation, tested 420–640 µg/mL) [µg/mL] | direct antimicrobial activity against A. baumannii ([3]; summary of MIC and EIC) | growth extent versus DMSO (A. baumannii (AB5075); 64 µg/mL) | growth extent versus DMSO (A. baumannii (AB5075); 128 µg/mL, mid-logarithmic and early stationary phases) |
| --- | --- | --- | --- | --- | --- | --- |
| CC(C)=CCC/C(C)=C/CC/C(C)=C/CO [Farnesol] | 570 | – | – | – | – | – |
| CCCCCCCCCCC[C@@H](C[C@@H]1OC(=O)[C@H]1CCCCCC)OC(=O)[C@H](CC(C)C)NC=O [Orlistat, orlistat] | – | > 128 | 640 | minimal direct antimicrobial activity | not | significant reduction in growth extent |
